Laboratory results taken from PubChem BioAssay (NCI).
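Results reflect a 48-hour exposure of cells in 96-well plates to compound at five concentrations. At the TGI there is no net growth.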 Where a SMILES comes first, the peptide text is derived from it. The star is where a group is joined. Cbz = O=C(OCc1ccccc1)*; Boc = CC(C)(C)OC(=O)*; OBn = c1ccc(CO*)cc1

Key:
Test in all cases: growth of human tumour cells (NCI), 48 h
786-0 renal = tested on: 786-0 renal
A549 NSCLC = tested on: A549 NSCLC
HCT-15 colon = tested on: HCT-15 colon
HS 578T breast = tested on: HS 578T breast
K-562 leukemia = tested on: K-562 leukemia
MDA-MB-231 breast = tested on: MDA-MB-231 breast
MDA-MB-435 = tested on: MDA-MB-435
MOLT-4 leukemia = tested on: MOLT-4 leukemia
NCI-H23 lung = tested on: NCI-H23 lung
NCI-H522 lung = tested on: NCI-H522 lung
SK-MEL-5 melanoma = tested on: SK-MEL-5 melanoma
SNB-75 CNS = tested on: SNB-75 CNS
SW-620 colon = tested on: SW-620 colon

Structure (SMILES) | TGI (786-0 renal) [µM] | TGI (A549 NSCLC) [µM] | TGI (HCT-15 colon) [µM] | TGI (HS 578T breast) [µM] | TGI (K-562 leukemia) [µM] | TGI (MDA-MB-231 breast) [µM] | TGI (MDA-MB-435) [µM] | TGI (MOLT-4 leukemia) [µM] | TGI (NCI-H23 lung) [µM] | TGI (NCI-H522 lung) [µM] | TGI (SK-MEL-5 melanoma) [µM] | TGI (SNB-75 CNS) [µM] | TGI (SW-620 colon) [µM]
COC(=O)C(CCCCNC(=O)OCc1ccccc1)NC(=O)C(CCC(=O)OCc1ccccc1)NC(=O)OC(C)(C)C (stereo not drawn) (Boc-Glu(OBn)-Lys(Cbz)-OMe; configuration not given here) | > 100 | > 100 | > 100 | > 100 | > 100 | > 100 | > 100 | > 100 | > 100 | > 100 | > 100 | > 100 | > 100
COC(=O)C1(Cc2ccccc2C)Cc2ccc(C)cc2C1=O (stereo not drawn) | > 100 | > 100 | > 100 | > 100 | > 100 | > 100 | > 100 | 74.7 | > 100 | 65.9 | 32.1 | > 100 | > 100
COc1ccc2[nH]c3c(c2c1)CCc1ccccc1-3 | > 100 | > 100 | > 100 | 37.4 | > 100 | 76.1 | > 100 | > 100 | > 100 | 79.7 | > 100 | 75.2 | > 100
CC(C)(C)OC(=O)N1CCC[C@H]1CSC[C@@H]1CCCN1C(=O)OC(C)(C)C | > 100 | 87.3 | 92.4 | 79.3 | 84.7 | > 100 | 46.7 | 37.5 | 68.2 | 56 | 32.7 | 77.2 | 96.8
NC1=NC(=O)[C@H](CSCc2ccccc2)N1C(=O)OCc1ccccc1 | > 100 | – | > 100 | > 100 | > 100 | > 100 | > 100 | > 100 | > 100 | > 100 | > 100 | > 100 | > 100
Nc1nc(SCC(=O)c2ccccc2)nc2nc3c(c(-c4ccccc4)c12)CCCC3 | 56.1 | > 100 | > 100 | 64 | > 100 | > 100 | > 100 | > 100 | > 100 | > 100 | > 100 | 78.6 | –
CC1=NN(c2ccccc2Cl)C2(C1)SCC(=O)N2c1nc2ccccc2s1 (stereo not drawn) | > 100 | > 100 | > 100 | > 100 | > 100 | > 100 | > 100 | – | > 100 | > 100 | > 100 | > 100 | > 100
NC(=S)NS(=O)(=O)c1ccc(F)cc1 | > 100 | > 100 | > 100 | > 100 | > 100 | > 100 | > 100 | > 100 | > 100 | > 100 | > 100 | > 100 | > 100
COC(=O)C(NC(=O)C12CCC(C)(C(=O)O1)C2(C)C)c1cc(C(C)(C)C)c(O)c(C(C)(C)C)c1 (stereo not drawn) | > 100 | > 100 | > 100 | > 100 | > 100 | > 100 | > 100 | > 100 | > 100 | > 100 | > 100 | > 100 | > 100
O=C1NC(c2ccccc2)C1N(Cc1ccccc1)Cc1ccccc1 (stereo not drawn) | > 100 | – | > 100 | > 100 | > 100 | > 100 | > 100 | > 100 | > 100 | > 100 | > 100 | > 100 | > 100
CSc1nc2ccccc2c(=O)n1-c1cccc(C)c1 | > 100 | > 100 | > 100 | > 100 | > 100 | > 100 | > 100 | 98.2 | > 100 | > 100 | 66.2 | > 100 | > 100
COc1ccc(-n2c(-c3ccccc3)cc(-c3cccs3)c2-c2cccs2)cc1 | > 100 | > 100 | > 100 | > 100 | – | > 100 | > 100 | > 100 | 95.7 | > 100 | > 100 | > 100 | > 100
O=C1c2cc([N+](=O)[O-])cnc2S(=O)(=O)N1c1ccc(Oc2ccccc2)cc1 | > 100 | > 100 | > 100 | > 100 | > 100 | > 100 | > 100 | > 100 | > 100 | > 100 | – | > 100 | > 100
COC(=O)c1c(OC(C)=O)ccc2c1c1c(n2Cc2ccccc2)C(=O)c2ccccc2C1=O | 52.4 | 83.9 | 41.9 | 48.3 | 87.3 | 36.8 | 35.8 | > 100 | 42.1 | 46.6 | 28.1 | 52.4 | –
NC(N)=NCCCS(=O)(=O)Nc1ccc(Nc2c3ccccc3nc3cc([N+](=O)[O-])ccc23)cc1 | 53.2 | 36.6 | > 100 | 50.9 | > 89.7 | 66.5 | > 100 | 43.6 | 35.6 | 61 | 45.3 | 45.8 | 58
COc1ccc(N=C/C=C/C(=C/COC(C)=O)OC(C)=O)cc1 | 90 | > 100 | > 100 | > 100 | 19.2 | 65.3 | > 100 | > 100 | 91.7 | 30.4 | 76.6 | > 100 | 32.6
COC(=O)C1CCCCCCCCCCC12SCCCS2 (stereo not drawn) | 28.5 | 36.7 | > 100 | 90.5 | 56.7 | 45.2 | 36.2 | 45 | > 100 | 43.5 | 41.9 | 81.2 | 81.9

Structure (SMILES) | TGI (786-0 renal) [µM] | TGI (A549 NSCLC) [µM] | TGI (HCT-15 colon) [µM] | TGI (HS 578T breast) [µM] | TGI (K-562 leukemia) [µM] | TGI (MDA-MB-231 breast) [µM] | TGI (MDA-MB-435) [µM] | TGI (MOLT-4 leukemia) [µM] | TGI (NCI-H23 lung) [µM] | TGI (NCI-H522 lung) [µM] | TGI (SK-MEL-5 melanoma) [µM] | TGI (SNB-75 CNS) [µM] | TGI (SW-620 colon) [µM]
CC(=O)Nc1ccccc1S(=O)(=O)c1c(-c2c(C)c(Cl)c(C)c(Cl)c2C)noc1C | 40.6 | > 100 | > 100 | 73.7 | > 100 | 88 | > 100 | > 100 | > 100 | > 100 | > 100 | 34.6 | > 100
Cc1ccc2c(c1)C(=O)c1ccc(C)nc1C2=O | > 100 | > 100 | 39 | > 100 | > 100 | > 100 | 37.6 | > 100 | 58.9 | 82.1 | 26.7 | > 100 | > 100
COc1ccc(C(c2ccccc2)N2C(=O)CCC2C(=O)O)cc1OC (stereo not drawn) | > 100 | > 100 | > 100 | > 100 | > 100 | > 100 | > 100 | > 100 | > 100 | > 100 | > 100 | > 100 | > 100
O=C(O)c1ccccc1/C=C1\Cc2ccc3c(c2C1=O)CCCC3 | > 100 | > 100 | > 100 | 81.2 | > 100 | 62.3 | > 100 | 58.6 | 75.4 | 65.9 | 37 | 86 | > 100
COC(=O)[C@H]1[C@H](OC(=O)[C@@H](OC)c2ccccc2)ON2CC[C@@H](OC(=O)c3ccccc3)[C@H]12 | > 100 | > 100 | > 100 | > 100 | > 100 | > 100 | > 100 | > 100 | > 100 | 7.59 | > 100 | 65.1 | –
CC(C)=CCc1c(O)c(CC=C(C)C)c2oc3c(c(=O)c2c1O)C(C=C(C)C)Oc1cc(O)ccc1-3 (stereo not drawn) | 19.5 | 20.6 | 19.1 | 43.8 | 16.6 | 25.6 | 13.7 | 16.6 | 16.2 | 15.2 | 21.5 | 14.1 | 18.1
ClCc1nc2cc(Cl)ccc2o1 | 3.34 | 42.2 | 16.7 | > 61.5 | > 100 | 10.2 | 8.07 | > 100 | 24.6 | 3.37 | 25.8 | 24.1 | > 67.2
CN(N=O)C(N)=NC(=O)c1ccccc1 | > 100 | > 100 | > 100 | > 100 | > 100 | > 100 | > 100 | > 100 | > 100 | > 100 | > 100 | > 100 | > 100
Cc1c(/C=N\NC(=S)N(C)CCN(C)C(=S)N/N=C\c2c(C)n(C)n(-c3ccccc3)c2=O)c(=O)n(-c2ccccc2)n1C | > 100 | > 100 | > 100 | > 100 | – | > 100 | > 100 | > 100 | > 100 | > 100 | > 100 | > 100 | > 100
N#Cc1c(-c2ccccc2)cc(Nc2ccc(F)cc2)n2c1nc1ccccc12 | 10 | > 100 | > 30.4 | 4.68 | > 100 | 65.2 | > 100 | > 100 | > 27.4 | 5.83 | 2.73 | 6.76 | > 100
C[N+](C)(C)C(Cc1c[nH]c(=S)[nH]1)C(=O)O (stereo not drawn) | > 100 | > 100 | > 100 | > 100 | > 100 | > 100 | > 100 | > 100 | > 100 | > 100 | > 100 | > 100 | > 100
CC(C)Cn1cnnc1NS(=O)(=O)c1cc(C(=O)NN)c(Cl)cc1S | > 10 | > 10 | > 10 | > 10 | > 10 | > 10 | > 10 | > 10 | > 10 | > 10 | > 10 | > 10 | > 10
O=C(c1no[n+]([O-])c1C(=O)c1csc2ccccc12)c1csc2ccccc12 | 0.713 | 35.7 | 21.7 | > 57.3 | 3.73 | 18.4 | 21.5 | 3.17 | 32 | 0.843 | 26.1 | 28.5 | 5.85
Cc1cc2c(cc1-c1cc3c(cc1C)C(C(C)C)=C(O)C(=O)/C3=C\Nc1cccc3c(N)cccc13)/C(=C/Nc1cccc3c(N)cccc13)C(=O)C(O)=C2C(C)C | > 100 | > 100 | > 100 | > 100 | > 100 | > 100 | > 100 | > 100 | > 100 | > 100 | > 100 | > 100 | > 100
O=Cc1cc(O)ccc1Br | > 78.3 | > 100 | 40.7 | > 100 | 19.2 | > 100 | 9.77 | 43.8 | 71 | > 94.3 | 98.2 | > 100 | > 100
CC1(C)O[C@@H]([C@@H](O)[C@H](O)C2SCCCS2)[C@@H](CO)O1 | > 100 | > 100 | > 100 | > 100 | > 100 | > 100 | > 100 | > 100 | > 100 | > 100 | > 100 | > 100 | > 100
Nc1nc(Cl)cc(NCC2(CO)CC(O)C2)n1 (stereo not drawn) | > 100 | > 100 | > 100 | > 100 | > 100 | > 100 | > 100 | > 100 | > 100 | > 100 | > 100 | > 100 | > 100
